# Laboratory results reported in patent publication US20260071234A1, “METHODS AND COMPOSITIONS FOR HEMATOPOIETIC STEM CELL ENHANCEMENT” (THE REGENTS OF THE UNIVERSITY OF CALIFORNIA, priority 2022, published 2026).
# Key:
# HLF+ HSC = conditions: day 10 cultures; applicant's analysis of published dataset; cited from earlier work
# E4EC = test: FACS based endocytosis assay, internalized fluorescent dextran in E4EC; type: cell-based, human; conditions: MYCT1 KD E4EC, 10 μM chlorpromazine
# Procedure: (§1) HSPC or endothelial cells transduced with control, MYCT1 KD, or MYCT1 OE lentiviral vectors were incubated with fluorescent dextran (pHrodo Red Dextran, ThermoFisher Scientific P10361) 40 μg/ml for 30 minutes at 37° C. After incubation, cells were immediately placed on ice, washed with ice-cold DPBS with 5% FBS and resuspended into single cell suspension for FACS analysis. 7AAD was included to discriminate dead cells.
# CB HSPCs = test: FACS based endocytosis assay, internalized fluorescent dextran in CB HSPCs; type: cell-based, human; conditions: MYCT1 KD CB HSPCs cultured 5 days; chlorpromazine 10 μM, MbCD 1 mM
# Procedure: as §1
Compound,MYCT1 expression in HLF+ HSC (HLF+ HSC),internalized fluorescent dextran after pre-treatment with endocytosis inhibitor (E4EC),dextran internalization after pre-treatment with endocytosis inhibitor (CB HSPCs)
CC(C)n1cnc2c(NCCc3ccc(O)cc3)nc(-c3csc4ccccc34)nc21 [SR1],minimal MYCT1 expression,–,–
Cn1nnc(-c2ccc3c(c2)[nH]c2nc(Cc4ccccc4)nc(NC4CCC(N)CC4)c23)n1 (centres unmarked) [UM171],minimal MYCT1 expression,–,–
CN(C)CCCN1c2ccccc2Sc2ccc(Cl)cc21 [chlorpromazine],–,dampened the increased endocytosis caused by MYCT1 loss,not sufficient to restore hyperactive endocytosis
methyl-beta-cyclodextrin,–,–,not sufficient to restore hyperactive endocytosis
